From patent publication EP4567031A1, “HPK1 INHIBITOR, PREPARATION METHOD THEREFOR, AND USE THEREOF” (Beijing Earthwise Technology Co., Ltd., priority 2022, dated 2024) come the findings set out here.

One assay concerns the target HPK1 (Homo sapiens, UniProt Q92918). Put plainly: HPK1 HTRF kinase assay. In kind it is biochemical. Particulars: 1000 µM ATP, 50 nM HPK1, STK1 substrate. How it is done: The reaction was initiated by adding 50 nM HPK1. After 120 minutes of reaction, the assay was terminated by adding 10 µL of Detection Mix.
The ratio of the signal at 665 nm to the signal at 615 nm was converted to the percentage of inhibition. Inhibition % = (maximum value - sample value) / (maximum value - minimum value)×100. The minimum value refers to the value measured in a well without enzyme but with DMSO and substrate, and the maximum value refers to the value measured in a well with DMSO, enzyme and substrate. IC50 values were calculated by XLFit (version 5.3.1.3) in Excel. Equation: Y = Bottom + (Top - Bottom) / (1 + (IC50/X) ^ HillSlope).
Background: In TR-FRET formats the signal depends on donor and acceptor labels being close together.

In a further assay the test system is human Pan T cells. Put plainly: Human Pan T cell IL-2 ELISA. Format: cell-based. The following applies: Homo sapiens, T-cell, 48 h, Anti-CD3 and Anti-CD28, supernatant IL-2 ELISA, read-out: IL-2 release, EC50. The procedure, abridged:
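Human Pan T cells (1×10^6 cells/ml) stimulated with plate-bound anti-CD3 plus anti-CD28 and treated 48 h with compound at 9 final concentrations, 39.063–10000 nM. Supernatant IL-2 by ELISA, expressed as fold over DMSO wells; EC50 from four-parameter logistic fit.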

Read-outs that look alike come from different tables or passages of the source.

Broadly, the IC50 is the concentration that gives 50% inhibition. As a reminder, the EC50 is the concentration that produces a half-maximal response.

Chain of HPK1 (Q92918 whole entry, species assumed): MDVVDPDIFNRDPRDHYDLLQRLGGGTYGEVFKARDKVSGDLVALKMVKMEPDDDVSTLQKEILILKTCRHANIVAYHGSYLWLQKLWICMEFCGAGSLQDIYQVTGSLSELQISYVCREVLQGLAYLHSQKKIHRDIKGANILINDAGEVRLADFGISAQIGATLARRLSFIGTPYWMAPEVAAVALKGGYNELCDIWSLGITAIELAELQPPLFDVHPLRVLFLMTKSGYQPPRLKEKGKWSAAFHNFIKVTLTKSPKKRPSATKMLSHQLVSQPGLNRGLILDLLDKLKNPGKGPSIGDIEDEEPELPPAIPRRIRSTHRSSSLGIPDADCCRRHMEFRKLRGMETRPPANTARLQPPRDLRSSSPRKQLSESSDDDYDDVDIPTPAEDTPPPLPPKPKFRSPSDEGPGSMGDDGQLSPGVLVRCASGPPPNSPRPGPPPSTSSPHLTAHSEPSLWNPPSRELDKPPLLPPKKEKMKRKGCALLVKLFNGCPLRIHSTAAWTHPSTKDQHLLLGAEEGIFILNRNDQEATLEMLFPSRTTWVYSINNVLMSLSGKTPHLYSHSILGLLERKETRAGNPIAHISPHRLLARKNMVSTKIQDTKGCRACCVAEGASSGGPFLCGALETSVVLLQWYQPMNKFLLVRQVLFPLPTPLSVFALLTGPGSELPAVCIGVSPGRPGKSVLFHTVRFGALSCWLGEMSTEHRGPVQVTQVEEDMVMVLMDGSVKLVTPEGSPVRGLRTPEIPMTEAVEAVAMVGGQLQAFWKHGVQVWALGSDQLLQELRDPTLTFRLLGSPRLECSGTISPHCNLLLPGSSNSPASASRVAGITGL

Consider `CC1(C)c2cc(N3CCOC(C(C)(C)O)C3)ccc2Nc2c1cc(-c1cnc3cccnn13)c1c2C(=O)NC1` (centres unmarked) [Example 19], for which the IC50 on HPK1 (read-out: HPK1, IC50) was determined as 6.31 nM. In the assay with human Pan T cells, the EC50 was determined as 2.11 nM.
As for `CC1(C)c2cc(CN3CCOCC3)ccc2Nc2c1cc(-c1cnn3cccnc13)c1c2C(=O)NC1` [Example 51], the IC50 on HPK1 (read-out: HPK1, IC50) is 11.4 nM. Moreover, the EC50 in the assay with human Pan T cells came to 58.8 nM.
Regarding `CC1(C)c2cc(N3CCOCC3)ccc2Nc2c1cc(-c1cnc3n1CCOC3)c1c2C(=O)NC1` [Example 79], the IC50 at HPK1 (read-out: HPK1, IC50) was found to be 6.36 nM. Besides, the EC50 with human Pan T cells came to 19.5 nM.
`CC1(C)c2cc(N3CCOCC3)ccc2Nc2c1cc(-c1nnc3n1CCCC3)c1c2C(=O)NC1` [Example 71]: on HPK1 (read-out: HPK1, IC50), the IC50 worked out at 11 nM. Besides, in the assay with human Pan T cells, the EC50 amounted to 68.6 nM.
In the case of `CC1(C)c2cc(N3CCOCC3)ccc2Nc2c1cc(-c1cnc3c(F)cccn13)c1c2C(=O)NC1` [Example 64], the IC50 on HPK1 (read-out: HPK1, IC50) worked out at 5.28 nM. Moreover, the EC50 with human Pan T cells was 3.51 nM.
For `CC1(C)c2cc(N3CCOCC3)ccc2Nc2c1cc(-c1cncc(OCC3COC3)c1)c1c2C(=O)NC1` [Example 74] the same measures were 49.7 nM and 100 nM.
In the same order, the values of `Cc1ccnc2c(-c3cc4c(c5c3CNC5=O)Nc3ccc(N5CCOCC5)cc3C4(C)C)cnn12` [Example 60] are 14.4 nM and 17.9 nM.
For `CC1(C)c2cc(N3CCOCC3)ccc2Nc2c1cc(-c1cnn3cnccc13)c1c2C(=O)NC1` [Example 53] the same measures were 7.97 nM and 5.54 nM.
Take `CC1(C)c2cc(CN3CCNCC3)ccc2Nc2c1cc(-c1cnn3cccnc13)c1c2C(=O)NC1` [Example 57]: the IC50 at HPK1 (read-out: HPK1, IC50) was found to be 11 nM. Also, the EC50 in the assay with human Pan T cells was determined as 27.1 nM.
For `CC1(C)c2cc(N3CCOCC3)ccc2Nc2c1cc(-n1cnc3c1CCCC3)c1c2C(=O)NC1` [Example 80] the same measures were 9.18 nM and 86.6 nM.
For the compound `Cc1ccnn2c(-c3cc4c(c5c3CNC5=O)Nc3ccc(N5CCOCC5)cc3C4(C)C)cnc12` [Example 54], the IC50 at HPK1 (read-out: HPK1, IC50) was found to be 3.81 nM. In addition, the EC50 in the assay with human Pan T cells turned out to be 6.53 nM.
For `CC1(C)c2cc(N3CCOC(C(C)(C)O)C3)ccc2Nc2c1cc(-c1cnn3cccnc13)c1c2C(=O)NC1` (centres unmarked) [Example 22] the same measures were 11.2 nM and 2.2 nM.
In the same order, the values of `CC1(C)c2cc(N3CCOCC3)c(F)cc2Nc2c1cc(-c1cnn3cccnc13)c1c2C(=O)NC1` [Example 59] are 7.78 nM and 6.97 nM.
As to `CC1(C)c2cc(N3CCOCC3)ccc2Nc2c1cc(-c1cnn3ccccc13)c1c2C(=O)NC1` [Example 37], the IC50 on HPK1 (read-out: HPK1, IC50) stood at 7.98 nM. Moreover, the EC50 in the assay on human Pan T cells turned out to be 2.27 nM.
For `Cn1ccc(-c2cc3c(c4c2CNC4=O)Nc2ccc(N4CCOC(C(C)(C)O)C4)cc2C3(C)C)cc1=O` (centres unmarked) [Example 32] the same measures were 16.4 nM and 12.3 nM.
In the same order, the values of `Cc1ccn2c(-c3cc4c(c5c3CNC5=O)Nc3ccc(N5CCC(O)CC5)cc3C4(C)C)cnc2c1F` [Example 40] are 12.3 nM and 5.07 nM.
In the same order, the values of `CC1(C)c2cc(N3CCOCC3)ccc2Nc2c1cc(-c1nnc3c(C#N)cccn13)c1c2C(=O)NC1` [Example 39] are 39 nM and 16.8 nM.
For `COc1nccn2c(-c3cc4c(c5c3CNC5=O)Nc3ccc(N5CCOCC5)cc3C4(C)C)cnc12` [Example 63], at HPK1 (read-out: HPK1, IC50), the IC50 stood at 5.48 nM. For the same compound, the EC50 in the assay on human Pan T cells worked out at 4.98 nM.
For `Cc1cnc2c(-c3cc4c(c5c3CNC5=O)Nc3ccc(N5CCOCC5)cc3C4(C)C)cnn2c1` [Example 61] the same measures were 8.55 nM and 17.7 nM.
With `CC1(C)c2cc(NC(=O)COCCO)ccc2Nc2c1cc(-c1cnn3cccnc13)c1c2C(=O)NC1` [Example 92], the IC50 at HPK1 (read-out: HPK1, IC50) came to 7.64 nM. The EC50 in the assay with human Pan T cells came out at 68.2 nM.
In the same order, the values of `CC1(C)c2cc(N3CCOCC3)ccc2Nc2c1cc(-c1cnn3c1CNCC3)c1c2C(=O)NC1` [Example 70] are 12.7 nM and 23.4 nM.
For `CN1CCN(c2ccc3c(c2)C(C)(C)c2cc(-c4cnn5cccnc45)c4c(c2N3)C(=O)NC4)C(=O)C1` [Example 55] the same measures were 7.55 nM and 40.3 nM.
On to `CC1(C)c2cc(N3CCOCC3)ccc2Nc2c1cc(-c1cnn3c1OCCC3)c1c2C(=O)NC1` [Example 77], for which, on HPK1 (read-out: HPK1, IC50), the IC50 came to 4.56 nM. Further, the EC50 in the assay with human Pan T cells was 13.6 nM.
As to `CC1(C)c2cc(N3CCOCC3)c(C(F)F)cc2Nc2c1cc(-c1cnn3cccnc13)c1c2C(=O)NC1` [Example 73], the IC50 at HPK1 (read-out: HPK1, IC50) turned out to be 7.87 nM. Further, the EC50 in the assay on human Pan T cells worked out at 28.9 nM.
For `Cn1ccc2c(-c3cc4c(c5c3CNC5=O)Nc3ccc(N5CCOCC5)cc3C4(C)C)cncc21` [Example 38] the same measures were 12.3 nM and 4.7 nM.
For `CC1(C)c2cc(N3CCOCC3)ccc2Nc2c1cc(-c1cnn3c1CCCC3)c1c2C(=O)NC1` [Example 36] the same measures were 11.8 nM and 6.33 nM.
Regarding `COc1ccnn2c(-c3cc4c(c5c3CNC5=O)Nc3ccc(N5CCOC(C(C)(C)O)C5)cc3C4(C)C)cnc12` (centres unmarked) [Example 24], on HPK1 (read-out: HPK1, IC50), the IC50 was 11.8 nM. Also, in the assay on human Pan T cells, the EC50 is 1.83 nM.
As to `COc1cncc2c(-c3cc4c(c5c3CNC5=O)Nc3ccc(N5CCOCC5)cc3C4(C)C)cnn12` [Example 76], the IC50 at HPK1 (read-out: HPK1, IC50) is 8.73 nM. Besides, the EC50 with human Pan T cells was 50.4 nM.
As for `COC1CCCn2c(-c3cc4c(c5c3CNC5=O)Nc3ccc(N5CCOCC5)cc3C4(C)C)cnc21` (centres unmarked) [Example 69], on HPK1 (read-out: HPK1, IC50), the IC50 came out at 6.86 nM. Besides, the EC50 with human Pan T cells worked out at 11.4 nM.
As for `CC1(C)c2cc(-c3cnn4cccnc34)c3c(c2Nc2ccc(N4CCOCC4)nc21)C(=O)NC3` [Example 29], the IC50 at HPK1 (read-out: HPK1, IC50) was determined as 10.1 nM. Moreover, the EC50 with human Pan T cells stood at 27.9 nM.
Consider `Cn1cccc(Nc2cc3c(c4c2CNC4=O)Nc2ccc(N4CCOCC4)cc2C3(C)C)c1=O` [Example 67], for which the IC50 on HPK1 (read-out: HPK1, IC50) amounted to 3.93 nM. Further, the EC50 with human Pan T cells is 14.4 nM.
For `COc1cccc2c(-c3cc4c(c5c3CNC5=O)Nc3cnc(N5CCOCC5)cc3C4(C)C)cnn12` [Example 27] the same measures were 11.7 nM and 1.79 nM.
In the same order, the values of `CN1CCN(Cc2ccc3c(c2)C(C)(C)c2cc(-c4cnn5cccnc45)c4c(c2N3)C(=O)NC4)CC1` [Example 50] are 8.71 nM and 19 nM.
As for `CC1(C)c2cc(C3CCNCC3)ccc2Nc2c1cc(-c1cnn3cccnc13)c1c2C(=O)NC1` [Example 83], the IC50 at HPK1 (read-out: HPK1, IC50) is 5.8 nM. Besides, the EC50 in the assay on human Pan T cells is 17.4 nM.
The compound `Cc1ccn2c(-c3cc4c(c5c3CNC5=O)Nc3ccc(N5CCOC(C(C)(C)O)C5)cc3C4(C)C)cnc2c1F` (single isomer, unassigned) [Example 88] yielded an IC50 against HPK1 (HPK1, IC50 (nM)) of 11.6 nM. Moreover, the EC50 in the assay with human Pan T cells was 12.3 nM.
Take `CNc1cncc(-c2cc3c(c4c2CNC4=O)Nc2ccc(N4CCOCC4)cc2C3(C)C)c1` [Example 82]: the IC50 at HPK1 (read-out: HPK1, IC50) is 6.62 nM. Moreover, in the assay on human Pan T cells, the EC50 was 27 nM.
On to `Cc1cc(-c2cc3c(c4c2CNC4=O)Nc2ccc(N4CCOCC4)cc2C3(C)C)cc(=O)[nH]1` [Example 81], for which, on HPK1 (read-out: HPK1, IC50), the IC50 came to 6.31 nM. In the assay on human Pan T cells, the EC50 amounted to 35.8 nM.
As to `Cc1ccn2c(-c3cc4c(c5c3CNC5=O)Nc3ccc(N5CCOC(CO)C5)cc3C4(C)C)cnc2c1F` (centres unmarked) [Example 46], the IC50 on HPK1 (read-out: HPK1, IC50) was determined as 10.3 nM. Moreover, the EC50 with human Pan T cells stood at 7.73 nM.
In the same order, the values of `CC1(C)c2cc(C3COCCN3)ccc2Nc2c1cc(-c1cnn3cccnc13)c1c2C(=O)NC1` (centres unmarked) [Example 52] are 8.2 nM and 9.08 nM.
For `CC1CCn2c(-c3cc4c(c5c3CNC5=O)Nc3ccc(N5CCOCC5)cc3C4(C)C)cnc2C1` (centres unmarked) [Example 65] the same measures were 8.59 nM and 28 nM.
